Laboratory results as given in patent US20010011143A1, “Process for preparing phenoxyphenylsulfonyl halides” (priority 1998, published 2001).

melting point: 78 to 83 °C
Structure (SMILES): O=S(=O)(Oc1ccc(F)cc1)c1ccc(Oc2ccc(F)cc2)cc1 [Example 1, 4-(4-Fluorophenoxy)benzenesulfonic Acid 4-Fluorophenyl Ester]
